Results: patent US20260235581A1, “METHOD FOR THE SELECTION OF AN ECOBIOLOGICAL COMPOUND CAPABLE OF INCREASING THE SKIN TOLERANCE THRESHOLD” (NAOS INSTITUTE OF LIFE SCIENCE, priority 2023, published 2026)

Assays:
[1] = tested on: TAFA4; assay: TAFA4 synthesis in normal human fibroblast culture supernatant, dot blot; type: cell-based; settings: for effect on the synthesis of TAFA4 (modulation of TAFA4 in the NHF supernatant): 72 hours of incubation, versus DMEM medium control set to 100%, valproic acid 0.025% and 0.05%, TGF-β 10 and 100 ng/ml, LPS 1 μg/ml; for doses with statistically significant induction of TAFA4 synthesis: NHF supernatant, 72 hours, Student test p<0.05, two doses tested
Protocol: Normal human fibroblasts (NHFs) have been used in this study (Lonza-Switzerland). The cells are seeded at 10,000 cells in 24-well plates in DMEM+1% Penicillin-streptomycin (P/S). After 72 hours of incubation at 37° C., 5% CO2, the supernatants and protein extracts (obtained from the cell layer) are recovered and stored at −80° C. Before assaying the TAFA4 protein, an evaluation of the toxicity of the compounds tested is performed using the MTT test. Only the concentrations which make it possible to obtain a viability greater than 80% are selected to be quantified by ELISA and dot blot. Dot blotting is an immunoenzymatic detection method for quantifying a protein in a sample after it has been deposited on a nitro-cellulose membrane in a well. Specific equipment (Biorad, France) is used with a nitrocellulose membrane. The device is subjected to a vacuum pressure which will make it possible to create the suctioning of the sample (supernatant or protein extract) and therefore, the binding of proteins to the nitrocellulose membrane. The equipment is placed at a height with respect to the vacuum pump, to respect the principle of gravity. The membrane is previously hydrated with 100 μl of TBS buffer (Tris base+NaCl diluted in water adjusted to pH 7.5) per well. This operation is repeated twice in order to optimise the hydration of the membrane for optimal binding of the proteins contained in the samples. The samples to be analysed (supernatants and protein extracts) and the different solutions of TAFA4 recombinant proteins at different concentrations of the TAFA4 standard range (0.78 to 100 ng/ml) are deposited in the plate (volume 100 μl/well used for the protein extracts and 500 μl/well-used for the supernatants) then the suction flow is activated. […] The presence of the TAFA4 protein on the membrane is conveyed by the formation of a grey to black spot depending on the intensity of the reaction and therefore on the quantity of protein. The membrane is read with the Fusion FX device (Vilber Lourmat) coupled with the VisionCapt software (Vilber Lourmat). The quantification of the TAFA4 protein in the samples tested is done with the VisionCapt software which makes it possible to measure the intensity of the various spots. The quantity of samples is then produced using the standard curve of the TAFA4 standard established with the recombinant protein The data have been collected from independent experiments performed in triplicate. Quantitative analyses are expressed in the form of mean±standard deviation. Statistical significance is determined by a Student test. […] The results are expressed as a percentage of TAFA4 expression by standardising the control to 100% (DMEM medium control). […]

[2] = tested on: KO mice for TAFA4; settings: UVC irradiation, intradermal injection post-irradiation; cited from earlier work
[3] = tested on: KO mice for TAFA4; settings: intradural injection; inflammatory pain agonist or partial lesion of the sciatic nerve; cited from earlier work
[4] = tested on: pain/hypersensitivity felt locally in the skin; settings: mice, injection subcutaneously or at the level of the neurons present in the bone marrow; cited from earlier work

Row | Compound | effect on the synthesis of TAFA4 (modulation of TAFA4 in the NHF supernatant) [1] | doses with statistically significant induction of TAFA4 synthesis [1] | effect on 35-day post-irradiation inflammation resolution defect [2] | effect on increased hypersensitivity to pain of TAFA4 KO mice [3] | duration of the reduction of pain/hypersensitivity post-injection [4] | effect on pain/hypersensitivity felt locally in the skin [4]
1 | CCCC(CCC)C(=O)O [Valproic acid, reference compound] | induce the synthesis of TAFA4 in a dose-dependent manner | 1 out of 2 doses | – | – | – | –
2 | TGF-β: TGF-β protein, 100-21, PEPROTECH | induce the synthesis of TAFA4 in a dose-dependent manner | 2 out of 2 doses | – | – | – | –
3 | human TAFA4 protein: TAFA Chemokine Like Family Member 4 protein, a neurokine; injected recombinant protein in literature mouse studies | – | – | can be compensated | compensates for the condition of TAFA4 KO mice | up to 4 hours | reduces the pain/hypersensitivity felt locally in the skin
